Source: the supplement of paper PMC10307832

Experiments:
Assay in all cases: relative viability (nuclei count vs DMSO), 5 days (fraction); higher = more cells survive
HCC-78 = tested on: HCC-78
In short: (§1)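 Lung cancer cell lines in 1536-well plates got either a single drug or a fixed anchor-drug dose together with five library-drug doses (not always all listed) in √10 steps, by pin tool, on the day after seeding. Nuclei were counted after 5 days, and relative viability is the treated-to-vehicle ratio of nuclei counts. Values are medians of duplicate plates.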

NCI-H727 = tested on: NCI-H727
In short: as §1

NCI-H2085 = tested on: NCI-H2085
In short: as §1

NCI-H2405 = tested on: NCI-H2405
In short: as §1

NCI-H2023 = tested on: NCI-H2023
In short: as §1

HCC-15 = tested on: HCC-15
In short: as §1

HCC-44 = tested on: HCC-44
In short: as §1

NCI-H1395 = tested on: NCI-H1395
In short: as §1

NCI-H661 = tested on: NCI-H661
In short: as §1

UMC-11 = tested on: UMC-11
In short: as §1

NCI-H1437 = tested on: NCI-H1437
In short: as §1

HCC-827 = tested on: HCC-827
In short: as §1

Compound: O=C(O)CCCCC(CCSCc1ccccc1)SCc1ccccc1 (configuration not stated) [CPI-613] + Nc1ncn([C@H]2C[C@H](O)[C@@H](CO)O2)c(=O)n1 [Decitabine] (partner 2 µM)
- relative viability (HCC-78; first compound 158.11 µM): 0.691
- relative viability (HCC-78; first compound 500 µM): 0.742
- relative viability (NCI-H727; first compound 5 µM): 0.803
- relative viability (NCI-H727; first compound 15.81 µM): 0.786
- relative viability (NCI-H727; first compound 50 µM): 0.894
- relative viability (NCI-H727; first compound 158.11 µM): 0.776
- relative viability (NCI-H727; first compound 500 µM): 0.828
- relative viability (NCI-H2085; first compound 5 µM): 0.536
- relative viability (NCI-H2085; first compound 15.81 µM): 0.525
- relative viability (NCI-H2085; first compound 50 µM): 0.568
- relative viability (NCI-H2085; first compound 158.11 µM): 0.437
- relative viability (NCI-H2085; first compound 500 µM): 0.208
- relative viability (NCI-H2405; first compound 5 µM): 0.754
- relative viability (NCI-H2405; first compound 15.81 µM): 0.72
- relative viability (NCI-H2405; first compound 50 µM): 0.709
- relative viability (NCI-H2405; first compound 158.11 µM): 0.674
- relative viability (NCI-H2405; first compound 500 µM): 0.535
- relative viability (NCI-H2023; first compound 5 µM): 0.215
- relative viability (NCI-H2023; first compound 15.81 µM): 0.257
- relative viability (NCI-H2023; first compound 50 µM): 0.244
- relative viability (NCI-H2023; first compound 158.11 µM): 0.0918
- relative viability (NCI-H2023; first compound 500 µM): 0.0147
- relative viability (HCC-15; first compound 5 µM): 0.594
- relative viability (HCC-15; first compound 15.81 µM): 0.592
- relative viability (HCC-15; first compound 50 µM): 0.547
- relative viability (HCC-15; first compound 158.11 µM): 0.265
- relative viability (HCC-15; first compound 500 µM): 0.0057
- relative viability (HCC-44; first compound 5 µM): 0.877
- relative viability (HCC-44; first compound 15.81 µM): 1.01
- relative viability (HCC-44; first compound 50 µM): 0.922
- relative viability (HCC-44; first compound 158.11 µM): 0.828
- relative viability (HCC-44; first compound 500 µM): 0.779
- relative viability (NCI-H1395; first compound 5 µM): 0.667
- relative viability (NCI-H1395; first compound 15.81 µM): 0.654
- relative viability (NCI-H1395; first compound 50 µM): 0.764
- relative viability (NCI-H1395; first compound 158.11 µM): 0.675
- relative viability (NCI-H1395; first compound 500 µM): 0.597
- relative viability (NCI-H661; first compound 5 µM): 0.547
- relative viability (NCI-H661; first compound 15.81 µM): 0.49
- relative viability (NCI-H661; first compound 50 µM): 0.577
- relative viability (NCI-H661; first compound 158.11 µM): 0.381
- relative viability (NCI-H661; first compound 500 µM): 0.0993
- relative viability (UMC-11; first compound 5 µM): 0.574
- relative viability (UMC-11; first compound 15.81 µM): 0.573
- relative viability (UMC-11; first compound 50 µM): 0.611
- relative viability (UMC-11; first compound 158.11 µM): 0.562
- relative viability (UMC-11; first compound 500 µM): 0.544
- relative viability (NCI-H1437; first compound 5 µM): 0.491
- relative viability (NCI-H1437; first compound 15.81 µM): 0.542
- relative viability (NCI-H1437; first compound 50 µM): 0.567
- relative viability (NCI-H1437; first compound 158.11 µM): 0.207
- relative viability (NCI-H1437; first compound 500 µM): 0.0486
- relative viability (HCC-827; first compound 5 µM): 0.363
- relative viability (HCC-827; first compound 15.81 µM): 0.31
- relative viability (HCC-827; first compound 50 µM): 0.359
- relative viability (HCC-827; first compound 158.11 µM): 0.301
- relative viability (HCC-827; first compound 500 µM): 0.29
